Measured values reported in patent publication US7996156B2, “Methods for predicting properties of molecules” (priority 2002, dated 2011).
Where two headings read alike, the source gives them in different places.

Target: T1, estrogen receptor (Rattus norvegicus, UniProt P06211)
T1 construct: in rat uterine cytosol, which was obtained from ovariectomized uteri of Sprague-Dawley rats; from tissue; host or cells: uterine cytosol of ovariectomized Sprague-Dawley rats
T1 sequence (P06211 1-600): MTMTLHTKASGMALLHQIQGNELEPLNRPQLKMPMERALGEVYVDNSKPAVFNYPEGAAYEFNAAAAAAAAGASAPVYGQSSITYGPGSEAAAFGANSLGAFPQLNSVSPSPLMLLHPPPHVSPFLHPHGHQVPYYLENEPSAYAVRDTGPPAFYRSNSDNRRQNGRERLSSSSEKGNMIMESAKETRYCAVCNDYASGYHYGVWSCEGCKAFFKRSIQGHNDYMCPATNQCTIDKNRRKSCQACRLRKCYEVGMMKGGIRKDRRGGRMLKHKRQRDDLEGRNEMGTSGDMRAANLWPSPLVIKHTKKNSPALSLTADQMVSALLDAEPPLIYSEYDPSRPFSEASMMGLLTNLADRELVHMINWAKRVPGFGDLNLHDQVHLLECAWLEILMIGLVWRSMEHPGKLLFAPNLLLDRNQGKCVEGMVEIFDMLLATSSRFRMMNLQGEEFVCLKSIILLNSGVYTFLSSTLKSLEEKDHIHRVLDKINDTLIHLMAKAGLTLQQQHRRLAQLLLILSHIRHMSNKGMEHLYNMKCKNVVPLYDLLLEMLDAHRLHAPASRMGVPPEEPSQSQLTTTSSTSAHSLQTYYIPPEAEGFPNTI
Assay: Competitive ER binding assay with [3H]E2 in rat uterine cytosol (NCTR)
Description: The log relative binding activity (RBA) data for these 130 structurally diverse compounds was used to train the CoSCoSA models. The data was produced at NCTR using a competitive ER binding assay with radiolabeled estradiol ([^3H]E2) in rat uterine cytosol, which was obtained from ovariectomized uteri of Sprague-Dawley rats. […] For each of the 130 compounds, the ^13C 2D ^13C—^13C COSY NMR experiment was simulated using the ACD Labs CNMR version 5.0 2D predictor software. The COSY NMR spectra could be saved as two tables per compound.

[1] = relative binding affinity vs 17-β-estradiol (RBA 100), rat uterine cytosol, 130 compound training set

Compound	Exp. Log(RBA)	Exp. Log(RBA) [1]
C#C[C@]1(O)CC[C@H]2[C@@H]3CCc4cc(O)ccc4[C@H]3[C@@H](OC)C[C@@]21C [moxestrol]	1.14	–
C[C@H]1CCC[C@@H](O)CCCCCc2cc(O)cc(O)c2C(=O)O1 [β-zearalanol]	–	−0.19
O=c1c(-c2ccc(O)cc2)coc2cc(O)ccc12 [daidzein]	−1.65	–
4-hydroxytamoxifen	2.24	–
C[C@]12CC[C@@H]3c4cc(O)c(O)cc4CC[C@H]3[C@@H]1CC[C@@H]2O [2-hydroxyestradiol]	1.47	–
CCOC(=O)c1ccc(O)cc1 [ethyl-4-hydrobenzoate]	–	−3.22
4-ethyl-7-OH-(p-meoxyphenol)-dihydro-1-benzopyran-2-one	–	−0.05
C[C@]12CC[C@@H]3c4ccc(O)c(O)c4CC[C@H]3[C@@H]1CC[C@@H]2O [4-hydroxyestradiol]	2.24	–
O=S(=O)(c1ccc(O)cc1)c1ccc(O)cc1 [4,4′-sulfonyldiphenol]	−3.07	–
Oc1ccc(-c2ccccc2)c(Cl)c1 [2-Cl-4-biphenylol]	–	−2.77
C[C@]12CC[C@H](O)C[C@@H]1CC[C@@H]1[C@@H]2CC[C@]2(C)[C@@H](O)CC[C@@H]12 [3β-androstanediol]	−0.92	–
COc1cc(O)c2c(=O)c(-c3ccc(O)cc3)coc2c1 [prunetin]	−2.74	–
O=C(/C=C/c1ccccc1)c1ccc(O)cc1 [4′-OH-chalcone]	–	−2.43
COc1ccc(C(=C(Cl)Cl)c2ccc(O)cc2)cc1 [monohydroxymethoxychlorolefin]	–	−0.63
O=C1C[C@@H](c2ccc(O)cc2)Oc2cc(O)cc(O)c21 [naringenin]	−2.13	–
COc1ccc(C(c2ccc(O)cc2)C(Cl)(Cl)Cl)cc1 (stereo not drawn) [monohydroxymethoxychlor]	–	−0.89
CCCCCCCOC(=O)c1ccc(O)cc1 [heptyl-4-hydroxybenzoate]	–	−2.09
C#C[C@]1(O)CC[C@H]2[C@@H]3CCc4cc(OC)ccc4[C@H]3CC[C@@]21C [mestranol]	0.35	–
O=C1CC(c2ccc(O)cc2)Oc2ccccc21 (stereo not drawn) [4′-hydroxyflavanone]	–	−2.65
CCCCCCCOc1ccc(O)cc1 [4-heptyloxyphenol]	–	−2.88
C[C@@]12CCC[C@H]1[C@@H]1CCc3cc(O)ccc3[C@H]1CC2 [17-deoxyestradiol]	–	1.14
CCC(c1ccc(O)c(O)c1)C(CC)c1ccc(O)c(O)c1 (stereo not drawn) [3,3′-dihydroxyhestrol]	–	1.19
Oc1ccc(-c2cc(Cl)c(Cl)c(Cl)c2Cl)cc1 [2,3,4,5-tetraCl-4′-biphenylol]	–	−0.64
CCc1cccc(O)c1 [3-ethylphenol]	–	−3.87
O=c1c(O)c(-c2ccc(O)c(O)c2)oc2cc(O)ccc12 [fisetin]	–	−2.35

Compound	Exp. Log(RBA)	Exp. Log(RBA) [1]
C(=C(c1ccccc1)c1ccccc1)c1ccccc1 [triphenylethylene]	–	−2.78
C[C@H]1CCC[C@H](O)CCCCCc2cc(O)cc(O)c2C(=O)O1 [α-zearalanol]	–	1.48
C[Si](C)(O[Si](C)(C)c1ccccc1)c1ccccc1 [1,3-diphenyltetramethyldisiloxane]	−3.16	–
O=C(CCc1ccc(O)cc1)c1c(O)cc(O)cc1O [phloretin]	−1.16	–
CC/C(=C(/CC)c1ccc(OC)cc1)c1ccc(OC)cc1 [dietheylstilbestrol dimethyl ether]	–	−1.25
Cc1cc(O)ccc1Cl [4-Cl-3-methylphenol]	–	−3.38
Oc1ccc(-c2cc(Cl)ccc2Cl)cc1 [2,5-dichloro-4′-biphenylol]	−1.44	–
Oc1ccc(CCc2ccccc2)cc1 [4-phenethylphenol]	–	−2.69
CCC(C)(c1ccc(O)cc1)c1ccc(O)cc1 [bisphenol B]	−1.07	–
O=C1CC(c2ccccc2)Oc2ccc(O)cc21 (stereo not drawn) [6-hydroxyflavanone]	–	−3.05
C/C(=C(/C)c1ccc(O)cc1)c1ccc(O)cc1 [dimethylstibestrol]	–	1.16
C[C@H]1CCC[C@H](O)CCC/C=C/c2cc(O)cc(O)c2C(=O)O1 [α-zearalenol]	–	1.63
C[C@H]1CCC[C@@H](O)CCC/C=C/c2cc(O)cc(O)c2C(=O)O1 [β-zearalenol]	–	−0.69
C/C=C(/C(=C/C)c1ccc(O)cc1)c1ccc(O)cc1 [dienestrol]	1.57	–
CCC(c1ccc(O)cc1)C(CC)c1ccc(OC)cc1 (stereo not drawn) [monomethyl ether hexestrol]	–	0.97
O=C(c1ccccc1)c1ccc(O)cc1O [2,4-dihyroxybenzophenone]	–	−2.61
Oc1ccc(-c2ccc(Cl)cc2)cc1 [4-Cl-4′-biphenylol]	–	−2.18
CCCOC(=O)c1ccc(O)cc1 [propyl-4-hydroxybenzoate]	−3.22	–
C[C@]12CC[C@@H](O)C[C@@H]1CC[C@@H]1[C@@H]2CC[C@]2(C)[C@@H](O)CC[C@@H]12 [3α-androstanediol]	−2.67	–
C[C@]12CC[C@@H]3c4ccc(O)cc4[C@@H](O)C[C@H]3[C@@H]1CC[C@@H]2O [1,3,5-Estratrien-3,6α-17β-triol]	–	−0.15
C[C@]12CC[C@@H]3c4ccc(O)cc4C[C@@H](CCCCCCCCC[S+]([O-])CCCC(F)(F)C(F)(F)F)[C@H]3[C@@H]1CC[C@@H]2O (stereo partly drawn) [ICI182780]	1.57	–
Oc1ccc(CCc2ccc(O)cc2)cc1 [4,4′-(1,2-ethanediyl)bisphenol]	–	−1.44
O=c1cc(-c2ccc(O)cc2)oc2ccc(O)cc12 [4,6-dihydroxyflavone]	–	−0.82
CCCCCCCCCc1ccc(O)cc1 [4-nonylphenol]	−1.53	–
CC/C(=C(/CC)c1ccc(OC)cc1)c1ccc(O)cc1 [diethylstilbestrol monomethyl ether]	–	1.31

Compound	Exp. Log(RBA)	Exp. Log(RBA) [1]
COC(=O)c1ccc(O)cc1 [methyl-4-hydrobenzoate]	–	−3.44
O=C(C(=O)c1ccc(O)cc1O)c1ccc(O)cc1O [2,2′,4,4′-tetrahydroxybenzil]	−0.68	–
CCC(c1ccc(O)cc1)C(CC)c1c(C)cc(O)cc1C (stereo not drawn) [2,6-dimethylhexestrol]	–	1.11
C[C@]12CC[C@@H]3c4ccccc4CC[C@H]3[C@@H]1CC[C@@H]2O [3-deoxyestradiol]	–	−0.3
CC(C)(C)c1ccc(O)cc1 [4-tert-butylphenol]	−3.61	–
O=C(OCc1ccccc1)c1ccc(O)cc1 [benzyl-4-hydroxybenzoate]	–	−2.54
CC(C)(c1ccc(O)cc1)c1ccc(O)cc1 [bisphenol A]	–	−2.11
O=c1c(O)c(-c2ccc(O)cc2)oc2ccc(O)cc12 [3,6,4′-trihydroxyflavone]	–	−0.35
O=C(c1ccc(O)cc1)c1ccc(O)cc1 [4,4′-dihydroxybenzophenone]	–	−2.46
O=C1CC(c2cccc(O)c2)Oc2ccccc21 (stereo not drawn) [3′-OH-flavanone]	–	−2.78
CC[C@H]1c2ccc3cc(OC)ccc3c2CC[C@@]1(C)C(=O)O [doisynoestrol]	–	−2.74
O=C(/C=C/c1ccccc1)c1ccccc1 [chalcone]	−2.82	–
CCC(c1ccc2cc(O)ccc2c1)C(C)(C)C(=O)O (stereo not drawn) [α,α-dimethylbethyl allenolic acid]	–	−0.02
O=c1c(-c2ccc(O)c(O)c2)coc2cc(O)ccc12 [3′,4′,7-trihydroxyisoflavone]	–	−2.35
O=c1c(O)c(-c2ccc(O)cc2O)oc2cc(O)cc(O)c12 [morin]	–	−3.35
O=c1c(O)c(-c2cc(O)c(O)c(O)c2)oc2cc(O)cc(O)c12 [myricetin]	−2.75	–
Clc1ccc(-c2ccccc2Cl)cc1 [2,4′-dichlorobiphenyl]	−3.61	–
Oc1ccc(Cc2ccc(O)cc2)cc1 [bis-(4-hydroxyphenyl)methane]	−3.02	–
Oc1c(Cl)cc(-c2cc(Cl)c(O)c(Cl)c2)cc1Cl [3,3′,5,5′-tetraCl-4,4′-biphenyldiol]	–	−3.25
COc1ccc2c(c1)CC[C@@H]1[C@@H]2CC[C@]2(C)[C@@H](O)[C@H](O)C[C@@H]12 [3-methylestriol]	–	−1.65
CCCCCCCCCCCCc1ccc(O)cc1 [4-dodecylphenol]	−1.73	–
O=C(/C=C/c1ccc(O)cc1)c1ccccc1 [4-OH-chalcone]	–	−2.43
Oc1ccc(-c2ccccc2)cc1 [p-phenylphenol]	−3.04	–
CC/C(=C(/c1ccc(OCCN(C)C)cc1)c1cccc(O)c1)c1ccccc1 [droloxifene]	1.18	–
C[C@H]1CCCC(=O)CCCCCc2cc(O)cc(O)c2C(=O)O1 [zearalanone]	0.32	–
